The results in this text go back to paper PMC10504751, “Chalcone/1,3,4-Oxadiazole/Benzimidazole hybrids as novel anti-proliferative agents inducing apoptosis and inhibiting EGFR & BRAFV^600E” (BMC Chemistry, 2023).

Values joined by “and” are separate entries in the source; they are usually repeats but may differ in a detail not shown here. Identical values can stand only once. Like-named read-outs stand apart in the source and are kept apart here.

Data set [1] relates to Bcl-2 in MCF-7. The data set is described as follows: Bcl-2 inhibition assay. The note with it: for Bcl-2 Conc: MCF-7; for Bcl-2 Fold reduction: MCF-7, vs untreated control.
Method: All reagents were thoroughly mixed without foaming before use. The microwells were washed twice with approximately 300 µL Wash Buffer per well with the thorough aspiration of microwell contents between washes. Care was taken not to scratch the surface of the microwells. After the last wash, the wells were emptied and microwell strips were tapped on an absorbent pad or paper towel to remove excess Wash Buffer. The microwell strips were used immediately after washing or placed upside down on a wet absorbent paper for not longer than 15 min. Wells were not allowed to dry. A total of 100 µL of Sample Diluent was added in duplicate to all standard wells and the blank wells. Standard (1:2 dilution) in duplicate was prepared ranging from 32 to 0.5 ng/mL. A total of 100 µL of Sample Diluent, in duplicate, was added to the blank wells. A total of 80 µL of Sample Diluent, in duplicate, was added to the sample wells. A total of 20 µL of each sample, in duplicate, was added to the designated wells. A total of 50 µL of diluted biotin was added, conjugated to all wells, including the blank wells. It was covered with a plate cover and incubated at room temperature on a microplate shaker at 100 rpm for 2 h. The plate cover was removed and the wells were emptied. Microwell strips were washed times as described in Step 2. A total of 100 µL of diluted Streptavidin-HRP was added to all wells, including the blank wells. It was covered with a plate cover and incubated at room temperature on a microplate shaker at 100 rpm for 1 h. The plate cover was removed and the wells were emptied. Microwell strips were washed three times, as described in Step 2. A total of 100 µL of mixed TMB Substrate Solution was pipetted into all wells, including the blanks. The microwell strips were incubated at room temperature (18 ◦C to 25 ◦C) for about 15 min, on a rotator set at 100 rpm. Direct exposure to intense light was avoided. The point at which the substrate reaction is stopped was determined by the ELISA reader. Many ELISA readers record absorbance only up to 2.0 O.D. Therefore, the color development within individual microwells was watched by the person running the assay, and the substrate reaction was stopped before positive wells were no longer properly detectable. The enzyme reaction was stopped by quickly pipetting 100 µL of Stop Solution into each well, including the blank wells. It was important that the Stop Solution was spread quickly and uniformly throughout the microwells to inactivate the enzyme completely. Results were read immediately after the Stop Solution was added or within one hour if the microwell strips were stored at 2–8 ◦C in the dark. The absorbance of each microwell was read on a spectrophotometer using 450 nm as the primary wavelength.
The subject of data set [2] is MOLT-4. The data set is described as follows: NCI one-dose SRB anti-proliferative screen. In kind it is cell-based, human. The note with it: for inhibition at 10 µM: Homo sapiens, read-out: Cell growth inhibition %; for Growth Percent: 10 µM one dose. As to the method:
(§1) The twenty-four synthesized compounds were submitted to the National Cancer Institute (NCI), USA. Eighteen hybrids 7a-h, 7k-r, 7u, and 7v were selected by NCI for one-dose assessment of their anti-proliferative activities at 10 µM dose by Sulforhodamine B colorimetric assay. The assessment was performed in 60 cell lines derived from nine tumor subpanels, comprising lung, leukemia, melanoma, colon, renal, CNS, prostate, breast, and ovarian cancer cell lines.
(§2) The methodology of the NCI anti-proliferative screening has been described in details elsewhere (http://www.dtp.nci.nih.gov).

Data set [3] deals with K-562. The data set is described as follows: NCI one-dose SRB anti-proliferative screen. It is filed as cell-based, human. The following applies: for inhibition at 10 µM: Homo sapiens, K562, read-out: Cell growth inhibition %; for Growth Percent: 10 µM one dose. As for the experimental part: as §1, §2
Data set [4] deals with RXF 393. Nature of the data set: NCI one-dose SRB anti-proliferative screen. The note with it: for inhibition at 10 µM: Homo sapiens, read-out: Cell growth inhibition %. In kind it is cell-based, human. As to the method: as §1, §2
Data set [5] deals with T-47D. Nature of the data set: NCI one-dose SRB anti-proliferative screen. In kind it is cell-based, human. The following applies: for inhibition at 10 µM: Homo sapiens, T47D, read-out: Cell growth inhibition %. As for the experimental part:
as §1, §2

The test system of data set [6] is HCT-116. Nature of the data set: NCI one-dose SRB anti-proliferative screen. It is filed as cell-based, human. The note with it: for inhibition at 10 µM: Homo sapiens, read-out: Cell growth inhibition %; for Growth Percent: 10 µM one dose. As for the experimental part:
as §1, §2

For data set [7], the system named is A-549. The data set is described as follows: Propidium iodide anti-proliferative assay. It is filed as cell-based. The note with it: Homo sapiens, A549; 48 h incubation; read-out: IC50 ± SEM A-549. Put shortly:
(§3)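 Cells seeded at 3000-7500 cells/well and grown 24 h at 37 °C, then treated with compounds (10 µM in 0.1% DMSO, triplicate; IC50 runs at varied concentrations) for 48 h. PI added, plates frozen 24 h at -80 °C and thawed, fluorescence read at 530/620 nm; % cytotoxicity versus 0.1% DMSO control.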

For data set [8], the system named is MCF-7. The data set is described as follows: Propidium iodide anti-proliferative assay. The following applies: Homo sapiens, MCF7; 48 h incubation; read-out: IC50 ± SEM MCF-7. It is filed as cell-based. Put shortly: as §3
Data set [9] relates to Panc-1. Nature of the data set: Propidium iodide anti-proliferative assay. In kind it is cell-based. The note with it: Homo sapiens, 48 h incubation, read-out: IC50 ± SEM Panc-1. Put shortly:
as §3

Data set [10] concerns HT-29. Nature of the data set: Propidium iodide anti-proliferative assay. It is filed as cell-based. The following applies: Homo sapiens, 48 h incubation, read-out: IC50 ± SEM HT-29. The method in brief:
as §3

The target of data set [11] is T1, EGFR (Homo sapiens, UniProt P00533).
T1 construct: EGFR cytoplasmic domain (EGFR-CD, amino acids 645–1186); His6 (N); made in house; host or cells: Sf-9 insect cells (baculovirus; pBlueBacHis2B / pFASTBacHTc)
T1 sequence (P00533 669-1210): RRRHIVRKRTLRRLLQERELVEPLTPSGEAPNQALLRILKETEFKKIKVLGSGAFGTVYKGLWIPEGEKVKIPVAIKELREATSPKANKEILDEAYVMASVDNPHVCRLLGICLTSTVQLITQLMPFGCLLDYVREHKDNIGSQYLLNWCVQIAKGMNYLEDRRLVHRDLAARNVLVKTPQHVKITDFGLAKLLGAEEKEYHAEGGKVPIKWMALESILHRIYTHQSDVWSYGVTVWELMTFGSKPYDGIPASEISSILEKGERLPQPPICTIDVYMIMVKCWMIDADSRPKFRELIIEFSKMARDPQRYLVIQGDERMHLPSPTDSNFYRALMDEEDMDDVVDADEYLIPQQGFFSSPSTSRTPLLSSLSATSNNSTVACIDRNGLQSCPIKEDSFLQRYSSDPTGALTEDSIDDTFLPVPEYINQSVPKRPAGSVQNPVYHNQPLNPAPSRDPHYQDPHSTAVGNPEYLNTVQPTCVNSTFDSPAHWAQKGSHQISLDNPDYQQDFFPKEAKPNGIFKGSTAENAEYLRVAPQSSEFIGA
The data set is described as follows: EGFR-TK inhibitory assay. In kind it is biochemical. The note with it: for IC50: read-out: EGFR Inhibition IC50 ± SEM.

Data set [12] deals with BRAF^V600E. The data set is described as follows: biochemical.
Chain of BRAF^V600E (P28028 whole entry V585E): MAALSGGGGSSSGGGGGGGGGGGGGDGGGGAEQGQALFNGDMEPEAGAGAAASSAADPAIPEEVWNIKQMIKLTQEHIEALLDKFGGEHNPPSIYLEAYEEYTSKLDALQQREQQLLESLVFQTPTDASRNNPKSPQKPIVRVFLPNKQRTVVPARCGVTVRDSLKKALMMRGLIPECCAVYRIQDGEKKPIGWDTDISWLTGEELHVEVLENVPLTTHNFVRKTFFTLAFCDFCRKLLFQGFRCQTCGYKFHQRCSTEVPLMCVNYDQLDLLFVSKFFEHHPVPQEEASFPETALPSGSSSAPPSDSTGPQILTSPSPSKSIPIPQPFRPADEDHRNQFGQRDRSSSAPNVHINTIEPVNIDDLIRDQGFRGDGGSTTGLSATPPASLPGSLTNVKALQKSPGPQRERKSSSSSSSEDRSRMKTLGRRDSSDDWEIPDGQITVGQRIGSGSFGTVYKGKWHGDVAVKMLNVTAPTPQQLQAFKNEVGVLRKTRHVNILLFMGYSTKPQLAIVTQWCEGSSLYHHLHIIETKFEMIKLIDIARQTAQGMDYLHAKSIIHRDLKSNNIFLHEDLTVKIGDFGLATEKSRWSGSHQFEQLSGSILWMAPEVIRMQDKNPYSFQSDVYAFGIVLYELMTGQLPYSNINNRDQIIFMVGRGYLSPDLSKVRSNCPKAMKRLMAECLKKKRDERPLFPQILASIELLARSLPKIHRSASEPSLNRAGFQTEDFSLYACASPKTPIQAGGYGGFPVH
Method: To further denature the protein, heat (70° C) was applied for 5 min. […] 10 µL of each reaction was loaded into the precast plates and electrophoresis was allowed to proceed. After completion of electrophoresis, the front part of the precast gel plate (holding hot ATP) was cut and afterwards cast-off. The dried gel was developed using a phosphor screen.
Data set [13] is described as follows: MTT cell viability assay in normal cells. The following applies: human, MCF-10A normal mammary epithelial cells. It is filed as cell-based. The method in brief: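 MTT read-out (540 nm after DMSO solubilization) of viability in non-tumour MCF-10A breast epithelial cells. Compounds applied at 50 µM in 0.1% DMSO, cells incubated 4 days at 37°C in quadruplicate.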
On the technique in general: Formazan colour is commonly taken as a measure of viable cells.

[14] abbreviates: RXF 393, Renal cancer, NCI one dose.
Where [15] appears, read: T-47D, Breast cancer, NCI one dose.
The mark [16] stands for this setting: HCT-116, Colon cancer, NCI one dose.
Where [17] appears, read: MOLT-4 (Leukemia), NCI one dose 10 µM.
The mark [18] stands for this setting: K-562 (Leukemia), NCI one dose 10 µM.
Where [19] appears, read: RXF 393 (Renal Cancer), NCI one dose 10 µM.
[20] abbreviates: T-47D (Breast Cancer), NCI one dose 10 µM.
The mark [21] stands for this setting: HCT-116 (Colon Cancer), NCI one dose 10 µM.

A word on the inhibition: it is the drop in the measured response relative to a control, in per cent. Usually IC50 stands for the concentration at which inhibition is half-maximal. Broadly, the viability is a per cent measure of how many cells are alive, often set against a control. Low readings indicate a greater loss of cells, high ones better survival. Turning to `COc1ccc(/C=C/C(=O)c2ccc(NC(=O)CSc3nnc(-c4ccc5[nH]c(-c6ccc(OC)cc6)nc5c4)o3)cc2)cc1` [Compound 7m, 2-{5-[2-(4-Methoxyphenyl)-1 H-benzo[d]imidazol-5-yl]-1,3,4-oxadiazol-2-ylthio}-N-{4-[(E)-3-(4-methoxyphenyl)acryloyl]phenyl}acetamide], the “Bcl-2 Conc” value in data set [1] was determined as 1.050 ng/mL. The “Bcl-2 Fold reduction” value in data set [1] turned out to be 4.9 fold. The inhibition at 10 µM in data set [2] (MOLT-4, Leukemia, NCI one dose) turned out to be 36.9%; in [3] (K-562, Leukemia, NCI one dose), 28.7%; in [4] (setting [14]), 0%; in data set [5] (setting [15]), 31.1%; in data set [6] (setting [16]), 0%. Further, the IC50 turned out to be 1400 ± 500 nM in [7]; 1200 ± 80 nM in data set [8]; 1500 ± 200 nM in [9]; 1850 ± 400 nM in data set [10]; 900 ± 100 nM in data set [11]; 2200 ± 200 nM in data set [12]. In [13], this compound returned a viability at 96 h, 50 µM of 94%.

For `COc1ccc(-c2nc3cc(-c4nnc(SCC(=O)Nc5ccc(C(=O)/C=C/c6ccc(Cl)cc6)cc5)o4)ccc3[nH]2)cc1` [Compound 7l, 2-{5-[2-(4-Methoxyphenyl)-1 H-benzo[d]imidazol-5-yl]-1,3,4-oxadiazol-2-ylthio}-N-{4-[(E)-3-(4-chlorophenyl)acryloyl]phenyl}acetamide], the “Bcl-2 Conc” value in data set [1] is 0.97 ng/mL and 0.975 ng/mL. Further, the “Bcl-2 Fold reduction” value in data set [1] is reported as 5.2 fold. Besides, the inhibition at 10 µM in [2] (MOLT-4, Leukemia, NCI one dose) was found to be 11.7%; in [3] (K-562, Leukemia, NCI one dose) it was 6.12%; in [4] (setting [14]), 1.82%; in [5] (setting [15]) it was 7.23%; in data set [6] (setting [16]), 0%. Moreover, the IC50 in data set [7] came out at 1450 ± 300 nM; in data set [8] it was 1100 ± 100 nM; in data set [9], 1500 ± 300 nM; in data set [10] it was 1650 ± 300 nM; in data set [11], 800 ± 100 nM; in [12] it was 1900 ± 200 nM. In addition, the viability at 96 h, 50 µM in data set [13] was found to be 89%.

`COc1ccc(-c2nc3cc(-c4nnc(SCC(=O)Nc5ccc(C(=O)/C=C/c6ccc(OC)c(OC)c6)cc5)o4)ccc3[nH]2)cc1` [Compound 7n, 2-{5-[2-(4-Methoxyphenyl)-1 H-benzo[d]imidazol-5-yl]-1,3,4-oxadiazol-2-ylthio}-N-{4-[(E)-3-(3,4-dimethoxyphenyl)acryloyl]phenyl}acetamide]: the inhibition at 10 µM in [2] (MOLT-4, Leukemia, NCI one dose) turned out to be 35.7%; in [3] (K-562, Leukemia, NCI one dose), 52.1%; in data set [4] (setting [14]), 31.5%; in [5] (setting [15]) it was 15.4%; in [6] (setting [16]) it was 42%. The “Growth Percent” value was found to be 47% in data set [3] (K-562 (Leukemia)) and 57.96% in data set [6] (HCT-116 (Colon Cancer)). For the same compound, the IC50 is 1900 ± 600 nM in data set [7]; 1650 ± 300 nM in data set [8]; 2050 ± 500 nM in data set [9]; 2200 ± 600 nM in data set [10]; 1400 ± 200 nM in [11]; 3700 ± 200 nM in data set [12]. Also, the viability at 96 h, 50 µM in data set [13] was found to be 92%.

For `O=C(CSc1nnc(-c2ccc3[nH]c(-c4ccc(Cl)cc4)nc3c2)o1)Nc1ccc(C(=O)/C=C/c2ccc(Cl)cc2)cc1` [Compound 7g, 2-{5-[2-(4-Chlorophenyl)-1 H-benzo[d]imidazol-5-yl]-1,3,4-oxadiazol-2-ylthio}-N-{4-[(E)-3-(4-chlorophenyl)acryloyl]phenyl}acetamide], the inhibition at 10 µM in [2] (setting [17]) was 22.2%; in data set [3] (setting [18]), 18.6%; in data set [4] (setting [19]), 0%; in data set [5] (setting [20]), 12.9%; in data set [6] (setting [21]), 22.2%. The IC50 in data set [7] was determined as 1800 ± 600 nM; in [8] it was 1450 ± 300 nM; in data set [9] it was 1900 ± 500 nM; in data set [10], 2100 ± 600 nM; in data set [11], 1700 ± 200 nM; in [12], 1000 ± 200 nM. This compound also gave a viability at 96 h, 50 µM in data set [13] of 91%.

With `COc1ccc(-c2nc3cc(-c4nnc(SCC(=O)Nc5ccc(C(=O)/C=C/c6ccc(Cl)cc6)cc5)o4)ccc3[nH]2)cc1OC` [Compound 7q, 2-{5-[2-(3,4-Dimethoxyphenyl)-1 H-benzo[d]imidazol-5-yl]-1,3,4-oxadiazol-2-ylthio}-N-{4-[(E)-3-(4-chlorophenyl)acryloyl]phenyl}acetamide], the inhibition at 10 µM came to 24.2% in data set [2] (setting [17]); 7.27% in data set [3] (setting [18]); 0% in [4] (setting [19]); 10.6% in data set [5] (setting [20]); 0% in [6] (setting [21]). Besides, the IC50 in data set [7] was found to be 3400 ± 400 nM; in [8], 3020 ± 300 nM; in data set [9] it was 3800 ± 500 nM; in data set [10], 3700 ± 500 nM; in [11], 3900 ± 300 nM; in data set [12], 4700 ± 300 nM. Also, the viability at 96 h, 50 µM in data set [13] turned out to be 94%.

With `COc1cc(/C=C/C(=O)c2ccc(NC(=O)CSc3nnc(-c4ccc5[nH]c(-c6ccccc6)nc5c4)o3)cc2)cc(OC)c1OC` [Compound 7e, 2-{5-[2-Phenyl-1 H-benzo[d]imidazol-5-yl]-1,3,4-oxadiazol-2-ylthio}-N-{4-[(E)-3-(3,4,5-trimethoxyphenyl)acryloyl]phenyl}acetamide], the inhibition at 10 µM in [2] (MOLT-4, Leukemia, NCI one dose) worked out at 35%; in data set [3] (K-562, Leukemia, NCI one dose), 41.7%; in data set [4] (setting [14]), 107%; in data set [5] (setting [15]), 11.1%; in data set [6] (setting [16]), 59.2%. Further, the “Growth Percent” value is 30% in data set [2] (MOLT-4 (Leukemia)); 58% in data set [3] (K-562 (Leukemia)); -6.89% in [4] (RXF 393 (Renal Cancer), 10 µM one dose); 40.76% in data set [6] (HCT-116 (Colon Cancer)). For the same compound, the IC50 in [7] is 1600 ± 300 nM; in data set [8], 1250 ± 80 nM; in [9], 1700 ± 300 nM; in data set [10], 1950 ± 300 nM; in data set [11], 1150 ± 200 nM; in data set [12] it was 900 ± 100 nM. In data set [13], this compound had a viability at 96 h, 50 µM of 87%.

With `COc1ccc(-c2nc3cc(-c4nnc(SCC(=O)Nc5ccc(C(=O)/C=C/c6ccccc6)cc5)o4)ccc3[nH]2)cc1` [Compound 7k, 2-{5-[2-(4-Methoxyphenyl)-1 H-benzo[d]imidazol-5-yl]-1,3,4-oxadiazol-2-ylthio}-N-{4-[(E)-3-phenylacryloyl]phenyl}acetamide], the “Bcl-2 Conc” value in data set [1] was 0.94 ng/mL and 0.940 ng/mL. The “Bcl-2 Fold reduction” value in data set [1] is recorded as 5.4 fold. The inhibition at 10 µM in [2] (MOLT-4, Leukemia, NCI one dose) came out at 53%; in data set [3] (K-562, Leukemia, NCI one dose), 44.6%; in data set [4] (setting [14]), 37.9%; in [5] (setting [15]), 58%; in data set [6] (setting [16]) it was 41.3%. Also, the “Growth Percent” value worked out at 47% in data set [2] (MOLT-4 (Leukemia)); 55% in data set [3] (K-562 (Leukemia)); 42.05% in data set [5] (T-47D (Breast Cancer), 10 µM one dose); 58.69% in data set [6] (HCT-116 (Colon Cancer)). Moreover, the IC50 stood at 1200 ± 200 nM in [7]; 950 ± 80 nM in [8]; 1300 ± 200 nM in [9]; 1400 ± 200 nM in data set [10]; 550 ± 100 nM in data set [11]; 1700 ± 200 nM in [12]. Further, the “fold less potent than Erlotinib against EGFR” value in data set [11] is given as “approximately 7 fold”. Moreover, the viability at 96 h, 50 µM in [13] stood at 91%.
